Source: PMC7761018, “Green Tea Catechins Induce Inhibition of PTP1B Phosphatase in Breast Cancer Cells with Potent Anti-Cancer Properties: In Vitro Assay, Molecular Docking, and Dynamics Studies” (Antioxidants, 2020)

Target: T1, PTP1B (Homo sapiens, UniProt P18031)
T1 construct: gene PTPN1
T1 sequence (P18031 1-435): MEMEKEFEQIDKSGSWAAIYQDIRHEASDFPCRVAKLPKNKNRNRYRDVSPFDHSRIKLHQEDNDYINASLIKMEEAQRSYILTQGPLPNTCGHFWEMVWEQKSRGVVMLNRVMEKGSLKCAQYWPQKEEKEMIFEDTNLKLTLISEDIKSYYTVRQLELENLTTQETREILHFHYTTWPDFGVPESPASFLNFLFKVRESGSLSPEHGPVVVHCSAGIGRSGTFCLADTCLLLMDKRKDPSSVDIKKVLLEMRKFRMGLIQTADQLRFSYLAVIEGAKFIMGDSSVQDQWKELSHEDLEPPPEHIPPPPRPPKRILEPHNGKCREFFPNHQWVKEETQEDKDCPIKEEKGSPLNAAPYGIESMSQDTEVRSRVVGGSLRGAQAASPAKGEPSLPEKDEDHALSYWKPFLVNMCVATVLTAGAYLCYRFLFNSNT
Experiment: recombinant PTP1B pNPP hydrolysis assay, absorbance at […] nm
Type: biochemical

IC50: 104 ± 10.1 µM
Structure (SMILES): Oc1cc(O)c2c(c1)O[C@H](c1cc(O)c(O)c(O)c1)[C@H](O)C2 [EGC, epigallocatechin]
